Test results as given in PubChem BioAssay AID2060610 (Molecular Pharmacology Branch, DTP, NCI, 2025).
Blank lines part the entries; values can stand above or below the compound they belong to.

Tested on: 616215-338-R-J1-PDC complex spheroids, viability % test/control
Experiment: Anticancer human tumor 616215-338-R-J1-PDC patient-derived colon adenocarcinoma cell line growth inhibition [CLK]
Conditions: for IC50: curve of first compound; for viability, T/C: stronger effect = lower value
In short: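 Multi-cell-type spheroids combined patient-derived tumor cells with HUVEC endothelial cells and human mesenchymal stem cells. Paired agents were dosed in half-log steps down from about clinical Cmax, or from 10 microM where Cmax was unknown.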

[1] = second compound 0.0316 µM, first compound 0.0316 µM
[2] = second compound 0.0316 µM, first compound 0.1 µM
[3] = second compound 0.0316 µM, first compound 0.316 µM
[4] = second compound 0.0316 µM, first compound 1 µM
[5] = second compound 0.0316 µM, first compound 3.16 µM
[6] = second compound 0.0316 µM, first compound 10 µM
[7] = second compound 0.1 µM, first compound 0.0316 µM
[8] = second compound 0.1 µM, first compound 0.1 µM
[9] = second compound 0.1 µM, first compound 0.316 µM
[10] = second compound 0.1 µM, first compound 1 µM
[11] = second compound 0.1 µM, first compound 3.16 µM
[12] = second compound 0.1 µM, first compound 10 µM
[13] = second compound 0.316 µM, first compound 0.0316 µM
[14] = second compound 0.316 µM, first compound 0.1 µM
[15] = second compound 0.316 µM, first compound 0.316 µM
[16] = second compound 0.316 µM, first compound 1 µM
[17] = second compound 0.316 µM, first compound 3.16 µM
[18] = second compound 0.316 µM, first compound 10 µM
[19] = second compound 1 µM, first compound 0.0316 µM
[20] = second compound 1 µM, first compound 0.1 µM
[21] = second compound 1 µM, first compound 0.316 µM
[22] = second compound 1 µM, first compound 1 µM
[23] = second compound 1 µM, first compound 3.16 µM
[24] = second compound 1 µM, first compound 10 µM
[25] = second compound 3.16 µM, first compound 0.0316 µM
[26] = second compound 3.16 µM, first compound 0.1 µM
[27] = second compound 3.16 µM, first compound 0.316 µM
[28] = second compound 3.16 µM, first compound 1 µM
[29] = second compound 3.16 µM, first compound 3.16 µM
[30] = second compound 3.16 µM, first compound 10 µM
[31] = second compound 10 µM, first compound 0.0316 µM
[32] = second compound 10 µM, first compound 0.1 µM
[33] = second compound 10 µM, first compound 0.316 µM
[34] = second compound 10 µM, first compound 1 µM
[35] = second compound 10 µM, first compound 3.16 µM
[36] = second compound 10 µM, first compound 10 µM
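Further: spheroids exposed to agents for 7 days.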
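Wherever viability, T/C is given: 100% = DMSO vehicle wells.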

IC50 (second compound 0.0316 µM): > 10000 nM | IC50 (second compound 0.1 µM): > 10000 nM | IC50 (second compound 0.316 µM): < 31.6 nM | IC50 (second compound 1 µM): < 31.6 nM | IC50 (second compound 3.16 µM): < 31.6 nM | IC50 (second compound 10 µM): < 31.6 nM
SMILES: O=C(c1cc(Cc2n[nH]c(=O)c3ccccc23)ccc1F)N1CCN(C(=O)C2CC2)CC1 + CNC(=O)c1ccc(Nc2nc(OC3CCCC3)c3c(-c4ccc5nc(C)oc5c4)c[nH]c3n2)c(OC)c1
viability, T/C [1]: 107% | viability, T/C [2]: 98.9% | viability, T/C [3]: 92.3% | viability, T/C [4]: 99.7% | viability, T/C [5]: 96.1% | viability, T/C [6]: 110% | viability, T/C [7]: 59% | viability, T/C [8]: 63.5% | viability, T/C [9]: 56% | viability, T/C [10]: 57.2% | viability, T/C [11]: 51.2% | viability, T/C [12]: 63.9% | viability, T/C [13]: 42.1% | viability, T/C [14]: 61.1% | viability, T/C [15]: 49.5% | viability, T/C [16]: 45.2% | viability, T/C [17]: 50% | viability, T/C [18]: 56.6% | viability, T/C [19]: 45.1% | viability, T/C [20]: 51.3% | viability, T/C [21]: 42.4% | viability, T/C [22]: 49.3% | viability, T/C [23]: 52.6% | viability, T/C [24]: 49.8% | viability, T/C [25]: 45.5% | viability, T/C [26]: 38.5% | viability, T/C [27]: 42.4% | viability, T/C [28]: 42.2% | viability, T/C [29]: 55.4% | viability, T/C [30]: 41.6% | viability, T/C [31]: 39.1% | viability, T/C [32]: 41.8% | viability, T/C [33]: 42.8% | viability, T/C [34]: 47.8% | viability, T/C [35]: 40.8% | viability, T/C [36]: 39.8%

SMILES: COc1cccc2c1C(=O)c1c(O)c3c(c(O)c1C2=O)CC(O)(C(=O)CO)CC3OC1CC(N)C(O)C(C)O1 (centres undefined) + CN1CCN(c2cc(C(=O)Nc3cc4cc(-c5cnn(C)c5)ccc4cn3)ccn2)CC1
IC50 (second compound 0.0316 µM): 211 nM | IC50 (second compound 0.1 µM): 142 nM | IC50 (second compound 0.316 µM): < 31.6 nM | IC50 (second compound 1 µM): < 31.6 nM | IC50 (second compound 3.16 µM): < 31.6 nM | IC50 (second compound 10 µM): < 31.6 nM | viability, T/C [1]: 82.5% | viability, T/C [2]: 42.5% | viability, T/C [3]: 51.5% | viability, T/C [4]: 41.8% | viability, T/C [5]: 0.43% | viability, T/C [6]: 0.14% | viability, T/C [7]: 71% | viability, T/C [8]: 44.8% | viability, T/C [9]: 42.5% | viability, T/C [10]: 37.9% | viability, T/C [11]: 0.52% | viability, T/C [12]: 0.13% | viability, T/C [13]: 27.6% | viability, T/C [14]: 32.9% | viability, T/C [15]: 21.8% | viability, T/C [16]: 2.19% | viability, T/C [17]: 0.13% | viability, T/C [18]: 0.13% | viability, T/C [19]: 0.14% | viability, T/C [20]: 0.17% | viability, T/C [21]: 0.16% | viability, T/C [22]: 0.1% | viability, T/C [23]: 0.09% | viability, T/C [24]: 0.11% | viability, T/C [25]: 0.09% | viability, T/C [26]: 0.12% | viability, T/C [27]: 0.11% | viability, T/C [28]: 0.09% | viability, T/C [29]: 0.12% | viability, T/C [30]: 0.71% | viability, T/C [31]: 0.1% | viability, T/C [32]: 0.12% | viability, T/C [33]: 0.46% | viability, T/C [34]: 0.13% | viability, T/C [35]: 0.16% | viability, T/C [36]: 0.17%
